Measurements: patent publication US4404206A, “Substituted iminoacid derivatives, process for preparing them and their use as enzyme inhibitors” (Science Union et Cie, priority 1979, dated 1983)

Tested on: enzyme responsible for the conversion of angiotension I into angiotension II
Assay: Inhibition of the angiotensin I pressor response in dogs after intravenous administration (arterial pressure recorded)
Assay type: in vivo
Conditions: dog
Procedure: The compounds of the invention are tested in […] dogs, maintained in forced respiration by an apparatus.
The aorta is catheterized by way of the femoral arteria, and the arterial pressure is registered by an appropriate instrument.
Angiotension I and II are administered to the animals intravenously at the dose of 0.3 γ/Kg. After registering of the dose/activity relation curve, the compounds of the invention are administered also by the intravenous route and modification of the blood pressure is also registered.
The results obtained by the new compounds are summarized in the table hereinafter and are expressed in percentage of inhibition of the enzyme activity. The numbers in the brackets indicate the dose of the active enantiomer contained in the administered doses.

[1] = dose 20 mg/Kg IV, time 15 minutes
[2] = dose 20 mg/Kg IV, time 30 minutes
[3] = dose 20 mg/Kg IV, time 1 h 30 min.
[4] = dose 10 (2,5) mg/Kg IV, time 15 minutes
[5] = dose 10 (2,5) mg/Kg IV, time 30 minutes
[6] = dose 10 (2,5) mg/Kg IV, time 1 h 30 min.
[7] = dose 10 (2,5) mg/Kg IV, time 1 hour
[8] = dose 10 (2,5) mg/Kg IV, time 2 hours
[9] = dose 10 (2,5) mg/Kg IV, time 3 hours

Row | SMILES | Percentage of inhibition (of the enzyme activity) [1] [%] | Percentage of inhibition (of the enzyme activity) [2] [%] | Percentage of inhibition (of the enzyme activity) [3] [%] | Percentage of inhibition (of the enzyme activity) (dose 20 mg/Kg IV, time 1 hour) [%] | Percentage of inhibition (of the enzyme activity) (dose 20 mg/Kg IV, time 2 hours) [%] | Percentage of inhibition (of the enzyme activity) (dose 20 mg/Kg IV, time 3 hours) [%] | Percentage of inhibition (of the enzyme activity) [4] [%] | Percentage of inhibition (of the enzyme activity) [5] [%] | Percentage of inhibition (of the enzyme activity) [6] [%] | Percentage of inhibition (of the enzyme activity) [7] [%] | Percentage of inhibition (of the enzyme activity) [8] [%] | Percentage of inhibition (of the enzyme activity) [9] [%] | Percentage of inhibition (of the enzyme activity) (dose 5 (1,25) mg/Kg IV, time 15 minutes) [%] | Percentage of inhibition (of the enzyme activity) (dose 5 (1,25) mg/Kg IV, time 30 minutes) [%] | Percentage of inhibition (of the enzyme activity) (dose 5 (1,25) mg/Kg IV, time 1 h 30 min.) [%] | Percentage of inhibition (of the enzyme activity) (dose 5 (1,25) mg/Kg IV, time 1 hour) [%] | Percentage of inhibition (of the enzyme activity) (dose 5 (1,25) mg/Kg IV, time 2 hours) [%] | Percentage of inhibition (of the enzyme activity) (dose 5 (1,25) mg/Kg IV, time 3 hours) [%]
1 | CC(CS)C(=O)N1CC2CCCCC2CC1C(=O)O (stereo not drawn) [Example 1, 2-(3-mercapto-2-(RS)-methylpropionyl)-cis-perhydroisoquinoline-3-carboxylicacid] | 100 | 100 | 76 | 90 | 70 | 42 |  |  |  |  |  |  |  |  |  |  |  | 
2 | C[C@@H](CS)C(=O)N1CC2CCCCC2[C@@H]1C(=O)O (mixture of isomers) [Example 7, N-[3-mercapto 2-(RS)methylpropionyl] 1-(RS) carboxy perhydroisoindole] |  |  |  |  |  |  | 83 | 64 | 48 | 62 | 40 | 26 |  |  |  |  |  | 
3 | CC(CS)C(=O)N1C(C(=O)O)CCC2CCCCC21 (racemic) [Example 8, 1-[3 mercapto 2-(RS)methylpropionyl] 2-(RS) carboxy perhydroquinoline.] |  |  |  |  |  |  | 72 | 69 | 50 | 64 | 36 | 31 |  |  |  |  |  | 
4 | CC(CC(=O)O)C(=O)N1Cc2ccccc2C[C@H]1C(=O)O (mixture of isomers) [Example 9, 2-[3-carboxy 2-(RS)methylpropionyl] 3-(S) carboxy 1,2,3,4-tetrahydroisoquinoline] | 38 | 35 | 25 | 25 | 48 | 25 |  |  |  |  |  |  |  |  |  |  |  | 
5 | CC(CS)C(=O)N1Cc2ccsc2CC1C(=O)O (racemic) [Example 6] | 47 | 51 | 30 | 37 | 26 | 23 |  |  |  |  |  |  |  |  |  |  |  | 
6 | C[C@@H](CS)C(=O)N1C2CCCCC2C[C@@H]1C(=O)O (mixture of isomers) [Example 5, N-[3-mercapto 2-(RS)methylpropionyl] 2-(RS) carboxy perhydroindole] |  |  |  |  |  |  | 100 | 92 | 92 | 92 | 92 | 86 | 100 | 100 | 90 | 100 | 71 | 54
